Results as given in article PMC5421464, “Characterization of the single-subunit oligosaccharyltransferase STT3A from Trypanosoma brucei using synthetic peptides and lipid-linked oligosaccharide analogs” (Glycobiology, 2017).

Experiments:
[1] = test system: octa-subunit OST complex from yeast; parameters: method as in Tai and Imperiali 2001; conditions: ref Tai and Imperiali 2001; cited from earlier work
[2] = test system: octa-subunit OST complex from pig liver; parameters: method as in Bause et al. 1995; conditions: ref Bause et al. 1995; cited from earlier work
PglB = PglB (Campylobacter lari, UniProt B9KDD4); test: In vitro substrate test with PglB; format: biochemical; conditions: data not shown
bacterial flippase PglK = test system: bacterial flippase PglK; parameters: method as in Perez et al. 2015; conditions: in detergent; ref Perez et al. 2015; cited from earlier work
TbSTT3A = biological target: T1, TbSTT3A (Trypanosoma brucei, UniProt Q57W34); test: In vitro glycosylation assay, turnover rate of acceptor peptides (Tricine SDS-PAGE fluorescence); format: biochemical; conditions: 50 µM donor, overnight incubation, vast excess substrate
T1 sequence (Q57W34 1-801): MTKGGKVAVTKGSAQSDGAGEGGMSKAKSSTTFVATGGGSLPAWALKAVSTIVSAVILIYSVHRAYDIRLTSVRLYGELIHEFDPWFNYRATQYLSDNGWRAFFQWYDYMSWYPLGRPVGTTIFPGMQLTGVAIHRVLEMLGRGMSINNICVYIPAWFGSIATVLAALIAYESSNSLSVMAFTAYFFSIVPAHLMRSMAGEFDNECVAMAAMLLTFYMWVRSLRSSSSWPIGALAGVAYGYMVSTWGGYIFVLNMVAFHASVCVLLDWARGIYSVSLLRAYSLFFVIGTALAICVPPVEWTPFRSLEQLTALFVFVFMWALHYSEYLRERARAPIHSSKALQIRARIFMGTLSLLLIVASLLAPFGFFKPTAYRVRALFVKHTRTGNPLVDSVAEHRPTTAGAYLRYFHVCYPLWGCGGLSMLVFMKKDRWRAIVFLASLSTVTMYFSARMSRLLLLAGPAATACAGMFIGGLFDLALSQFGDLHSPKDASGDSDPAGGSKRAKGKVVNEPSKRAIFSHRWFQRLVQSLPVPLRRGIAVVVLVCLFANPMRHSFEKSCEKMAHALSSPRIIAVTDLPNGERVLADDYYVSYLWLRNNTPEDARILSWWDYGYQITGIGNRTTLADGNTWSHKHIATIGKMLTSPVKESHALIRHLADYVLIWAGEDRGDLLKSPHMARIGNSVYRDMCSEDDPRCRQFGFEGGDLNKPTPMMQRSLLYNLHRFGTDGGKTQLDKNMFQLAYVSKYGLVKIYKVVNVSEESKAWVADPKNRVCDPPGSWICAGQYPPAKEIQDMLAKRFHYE
Protocol: Fig. 2. Optimization of the acceptor peptide sequence. (A) Synthetic acceptor peptides are shown in single letter code. The acceptor asparagine (zero position of the sequon) is indicated in red. Glycosylation experiments were performed and the fluorescently labeled substrate (G0) and product (G1) were quantified following Tricine SDS-PAGE analysis. (B) Turnover rates after fitting the time points by linear regression using PRISM. Error bars indicate standard error of the fitting. (C) Kinetic analysis of substrate peptides: glycosylation experiments were performed with 20 nM purified TbSTT3A, 50 µM farnesyl-PP-chitobiose, 10 mM MnCl2, 150 mM NaCl, 20 mM Hepes pH 7.5, 0.035% DDM, 0.007% CHS and different concentrations of peptides varying from 2 to 60 µM. Data points reflect the mean of three separate measurements. Error bars indicate standard deviations. Data were fitted by nonlinear regression according to the Michaelis–Menten formula using PRISM. This figure is available in black and white in print and in color at Glycobiology online.
Reaction mixtures contained 20 nM purified TbSTT3A protein, 50µM farnesyl-PP-GlcNAc or farnesyl-PP-chitobiose, 10 mM MnCl2, 150 mM NaCl, 20 mM Hepes pH 7.5, 0.035% DDM, 0.007% CHS and 20 µM of the peptide. Reactions were incubated at 30°C. Samples were taken at different time points and reactions were stopped by the addition of 4X SDS Laemmli buffer. Samples were diluted 200-fold prior to analysis by Tricine SDS-PAGE consisting of a 16% resolving gel with 6 M urea, a 10% spacer gel and a 4% stacking gel ([Schägger 2006]). Fluorescent bands for peptide and glycopeptide were visualized by using a Typhoon Trio Plus imager (GE Healthcare) with excitation set at 488 nm and using a 526 nm SP emission filter. The amount of formed glycopeptide was determined from band intensities of fluorescence gel scans (ImageJ) ([Gerber et al. 2013]). Turnover rate determination was performed by fitting of the data to linear regression using PRISM software.
Supplementary Figure 2: Glycosylation Assays with farnesyl-PP-GlcNAc. In vitro glycosylation experiments were performed with 20nM purified TbStt3A purified protein, 50µM Farnesyl-PP-GlcNAc or Farnesyl-PP-GlcNac2, 10 mM MnCl2, 150 mM NaCl, 20 mM Hepes pH 7.5, 0.035% DDM, 0.007% CHS and 10 µM of the peptide P1.

PglB, sequence (B9KDD4 whole entry): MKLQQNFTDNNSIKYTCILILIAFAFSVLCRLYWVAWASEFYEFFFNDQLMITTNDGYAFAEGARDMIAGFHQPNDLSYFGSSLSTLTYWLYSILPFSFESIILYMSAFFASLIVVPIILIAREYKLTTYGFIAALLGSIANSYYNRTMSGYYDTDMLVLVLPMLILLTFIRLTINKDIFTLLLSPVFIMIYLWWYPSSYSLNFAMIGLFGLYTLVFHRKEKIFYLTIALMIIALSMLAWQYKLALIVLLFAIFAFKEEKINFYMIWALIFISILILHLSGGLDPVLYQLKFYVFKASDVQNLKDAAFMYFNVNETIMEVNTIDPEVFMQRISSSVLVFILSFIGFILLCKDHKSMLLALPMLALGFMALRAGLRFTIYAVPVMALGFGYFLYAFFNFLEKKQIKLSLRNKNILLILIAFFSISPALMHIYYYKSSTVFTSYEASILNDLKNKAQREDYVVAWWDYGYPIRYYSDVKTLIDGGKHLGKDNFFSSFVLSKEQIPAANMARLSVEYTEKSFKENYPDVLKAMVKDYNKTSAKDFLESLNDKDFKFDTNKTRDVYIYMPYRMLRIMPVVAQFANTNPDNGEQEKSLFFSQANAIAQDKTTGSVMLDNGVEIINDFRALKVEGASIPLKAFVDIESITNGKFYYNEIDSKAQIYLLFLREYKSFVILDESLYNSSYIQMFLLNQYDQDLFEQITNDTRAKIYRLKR

Molecule	Recognition as donor substrate in vitro [1]	Recognition as donor substrate in vitro [2]	In vitro substrate of PglB (PglB)	Effect on ATPase activity of PglK (bacterial flippase PglK)	Donor substrate for TbSTT3A (glycopeptide product formation) (TbSTT3A)	Donor substrate for TbSTT3A (glycopeptide product formation) (TbSTT3A; listed as farnesyl-PP-GlcNac)
Dol-PP-GlcNAc	poor donor	poor donor	–	–	–	–
CC(=O)NC1C(OP(=O)(O)OP(=O)(O)OCC=C(C)CCC=C(C)CCC=C(C)C)OC(CO)C(O)C1O (stereo not drawn) [farnesyl-PP-GlcNAc, reference compound]	–	–	accepted as an in vitro substrate	stimulated ATPase activity	no glycopeptide product was observed	not recognized as a substrate
